Assay results as given in the supplement of paper PMC10307832.

Experiments:
Assay in all cases: relative viability (nuclei count vs DMSO), 5 days (fraction); higher = more cells survive
[1] = compound: CN(c1ncccc1CNc1nc(Nc2ccc3c(c2)CC(=O)N3)ncc1C(F)(F)F)S(C)(=O)=O + Cc1nc(Nc2ncc(C(=O)Nc3c(C)cccc3Cl)s2)cc(N2CCN(CCO)CC2)n1 [Dasatinib] (partner 0.075 µM)
Method in brief: (§1)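 Nuclei were stained with Hoechst during a one-step fixation (final 0.05% Triton X-100, 1% formaldehyde, 1 ug/ml Hoechst) carried out 5 days after dosing, then counted on 4× images. The cells, lung cancer lines in 1536-well plates, had been dosed by pin tool the day after seeding with one drug alone or a fixed anchor-drug dose plus five library-drug doses (not always all listed) in √10 steps. Relative viability is the nuclei count in treated wells divided by that in vehicle wells, and each value is the median of duplicate plates.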

[2] = compound: CN(c1ncccc1CNc1nc(Nc2ccc3c(c2)CC(=O)N3)ncc1C(F)(F)F)S(C)(=O)=O + CC1(C)CCC(c2ccc(Cl)cc2)=C(CN2CCN(c3ccc(C(=O)NS(=O)(=O)c4ccc(N[C@H](CCN5CCOCC5)CSc5ccccc5)c(S(=O)(=O)C(F)(F)F)c4)cc3)CC2)C1 [Navitoclax] (partner 0.5 µM)
Method in brief: as §1

[3] = compound: CN(c1ncccc1CNc1nc(Nc2ccc3c(c2)CC(=O)N3)ncc1C(F)(F)F)S(C)(=O)=O + CC(C)C[C@H](NC(=O)[C@H](Cc1ccccc1)NC(=O)c1cnccn1)B(O)O [Bortezomib] (partner 0.002 µM)
Method in brief: as §1

[4] = compound: CN(c1ncccc1CNc1nc(Nc2ccc3c(c2)CC(=O)N3)ncc1C(F)(F)F)S(C)(=O)=O + CCNC(=O)c1noc(-c2cc(C(C)C)c(O)cc2O)c1-c1ccc(CN2CCOCC2)cc1 [Luminespib] (partner 0.01 µM)
Method in brief: as §1

Cell Line	relative viability ([1]; first compound 0.01 µM)	relative viability ([1]; first compound 0.03162 µM)	relative viability ([1]; first compound 0.1 µM)	relative viability ([1]; first compound 0.3162 µM)	relative viability ([1]; first compound 1 µM)	relative viability ([2]; first compound 0.01 µM)	relative viability ([2]; first compound 0.03162 µM)	relative viability ([2]; first compound 0.1 µM)	relative viability ([2]; first compound 0.3162 µM)	relative viability ([2]; first compound 1 µM)	relative viability ([3]; first compound 0.01 µM)	relative viability ([3]; first compound 0.03162 µM)	relative viability ([3]; first compound 0.1 µM)	relative viability ([3]; first compound 0.3162 µM)	relative viability ([3]; first compound 1 µM)	relative viability ([4]; first compound 0.01 µM)	relative viability ([4]; first compound 0.03162 µM)	relative viability ([4]; first compound 0.1 µM)	relative viability ([4]; first compound 0.3162 µM)	relative viability ([4]; first compound 1 µM)
201T	0.602	0.55	0.45	0.538	0.517	1.21	1.26	1.18	1.16	1.15	1.1	1.09	1.04	1.01	1.08	1.05	1	0.945	0.986	0.951
A-427	0.628	0.864	0.713	0.823	0.725	0.999	0.973	1.02	0.973	0.945	1.09	1.01	0.998	0.942	0.965	0.908	1.1	0.832	0.921	0.905
ABC-1	0.574	0.633	0.559	0.54	0.587	–	–	–	–	–	0.308	0.273	0.396	0.376	0.329	0.557	0.985	0.511	0.524	0.516
BEN	0.319	0.312	0.272	0.289	0.267	0.0691	0.0546	0.0649	0.0815	0.0763	0.821	0.772	0.993	0.865	0.856	0.392	0.313	0.863	0.289	0.328
CAL-12T	0.35	0.213	0.268	0.191	0.136	1.25	1.1	1.27	1.27	0.883	1.07	0.886	0.856	0.919	0.878	0.284	0.55	0.451	0.258	0.277
COR-L23	0.458	0.524	0.483	0.413	0.323	0.929	1.09	0.933	1.01	0.826	0.967	1.01	1.05	0.951	0.894	0.622	1	0.656	0.734	0.41
COR-L 105	0.274	0.25	0.343	0.282	0.288	0.773	0.833	0.869	0.777	0.493	0.889	0.733	0.835	0.814	0.595	0.691	0.712	0.809	0.766	0.526
Calu-6	–	–	–	–	–	0.848	0.863	0.78	0.777	0.772	1.04	1.01	1.02	0.958	0.874	–	–	–	–	–
ChaGo-K-1	0.656	0.531	0.52	0.614	0.531	1.04	0.819	1.11	–	1.08	1.01	0.803	1.11	–	1.09	0.479	0.629	0.635	0.706	0.556
EBC-1	–	–	–	–	–	0.461	0.318	0.351	0.385	0.302	0.596	0.5	0.56	0.585	0.499	–	–	–	–	–
EKVX	0.464	0.425	0.447	0.411	0.347	0.974	1.02	0.944	0.852	0.81	1.02	1.19	1.11	0.923	0.83	0.923	1.03	0.839	0.869	0.786
EMC-BAC-2	0.247	0.308	0.279	0.295	0.271	1.18	1.24	1.05	1.16	1.2	1.08	1.1	1	1.06	1.08	1.16	1.27	1.17	1.16	0.994
EPLC-272H	0.338	0.27	0.218	0.209	0.135	1.28	1.08	1.16	1.35	0.97	0.972	0.774	0.854	0.944	0.758	0.6	0.487	0.265	0.317	0.251
H3255	0.368	0.347	0.356	0.385	0.378	0.606	0.518	0.616	0.475	0.35	0.758	0.783	0.819	0.505	0.784	1.03	0.963	0.796	0.933	0.904
HARA	0.228	0.17	0.19	0.201	0.217	1.18	1.19	1.14	0.91	0.968	1.12	1.07	1.13	1.2	1.09	0.589	0.887	0.602	0.606	0.549
HCC-15	0.541	0.602	0.497	0.428	0.408	0.716	0.745	0.639	0.579	0.507	1.04	1	0.898	0.88	0.829	0.543	0.456	0.349	0.407	0.301
HCC-44	–	–	–	–	–	0.977	1.15	0.951	0.905	0.756	0.963	0.931	0.913	0.829	0.824	1.04	1.5	1.24	–	0.933
HCC-78	0.312	0.33	0.325	0.256	0.296	0.81	0.845	0.73	0.632	0.674	0.567	0.587	0.502	0.462	0.422	–	–	–	–	–
HCC-366	0.541	0.904	0.598	0.644	0.687	1.03	1.18	1.08	1.04	0.927	0.927	1.24	1.09	1.02	1.06	–	–	–	–	–
HCC-827	0.191	0.185	0.115	0.107	0.109	1.01	1	0.995	1.04	0.915	1.1	1.06	1.09	1.02	1.05	0.346	0.612	0.595	1.02	0.629

Cell Line	relative viability ([1]; first compound 0.01 µM)	relative viability ([1]; first compound 0.03162 µM)	relative viability ([1]; first compound 0.1 µM)	relative viability ([1]; first compound 0.3162 µM)	relative viability ([1]; first compound 1 µM)	relative viability ([2]; first compound 0.01 µM)	relative viability ([2]; first compound 0.03162 µM)	relative viability ([2]; first compound 0.1 µM)	relative viability ([2]; first compound 0.3162 µM)	relative viability ([2]; first compound 1 µM)	relative viability ([3]; first compound 0.01 µM)	relative viability ([3]; first compound 0.03162 µM)	relative viability ([3]; first compound 0.1 µM)	relative viability ([3]; first compound 0.3162 µM)	relative viability ([3]; first compound 1 µM)	relative viability ([4]; first compound 0.01 µM)	relative viability ([4]; first compound 0.03162 µM)	relative viability ([4]; first compound 0.1 µM)	relative viability ([4]; first compound 0.3162 µM)	relative viability ([4]; first compound 1 µM)
HOP-62	0.616	0.512	0.5	0.301	0.301	1.18	1.07	0.94	1.04	0.934	0.839	0.673	0.939	0.803	0.911	0.969	0.933	0.949	0.932	0.699
IA-LM	–	–	–	–	–	0.712	0.726	0.786	0.788	0.654	0.807	0.886	0.727	0.877	0.666	–	–	–	–	–
LC-2-ad	0.414	0.484	0.492	0.399	0.335	0.556	0.479	0.433	0.364	0.322	1.04	1	1.06	0.961	0.799	1.22	1.05	0.967	0.98	0.845
LCLC-97TM1	0.727	0.794	0.815	0.773	0.722	–	0.394	0.25	0.381	0.385	1.04	0.74	0.439	0.559	0.526	0.779	0.854	0.788	0.81	0.632
LCLC-103H	0.47	0.36	0.481	0.442	0.332	–	–	–	–	–	1.13	1.05	1.18	0.937	1.02	0.754	0.927	0.918	0.892	0.752
LK-2	0.316	0.293	0.269	0.312	0.27	1.04	1.03	1.02	0.809	0.773	–	–	–	–	–	0.175	0.174	0.165	0.201	0.235
LOU-NH91	0.56	0.526	0.491	0.501	0.448	0.695	0.751	0.772	0.762	0.793	0.497	0.47	0.482	0.482	0.459	0.322	0.366	0.313	0.351	0.355
NCI-H358	0.202	0.15	0.137	0.22	0.167	–	–	–	–	–	–	–	–	–	–	0.292	0.465	0.397	0.247	0.214
NCI-H650	0.445	0.459	0.434	0.434	0.456	–	–	–	–	–	0.69	0.846	0.843	0.692	0.649	0.773	0.779	0.655	0.728	0.654
NCI-H661	0.973	0.809	0.885	0.782	0.83	–	–	–	–	–	0.928	1.06	0.717	0.837	1.04	0.854	0.928	0.837	0.871	0.876
NCI-H1299	–	–	–	–	–	1.04	1.05	1.06	1.07	1.04	1.05	1.01	1.04	0.996	1.02	–	–	–	–	–
NCI-H1395	0.461	0.374	0.359	0.414	0.386	1.19	1.25	1.04	1.06	1.31	–	–	–	–	–	0.766	0.703	0.682	0.558	0.658
NCI-H1563	0.458	0.422	0.429	0.372	0.385	–	–	–	–	–	0.906	0.808	0.849	0.867	0.876	0.538	0.528	0.53	0.482	0.547
NCI-H1703	–	–	–	–	–	0.951	1.12	1.03	1.11	1.02	0.311	0.295	0.415	0.481	0.235	–	–	–	–	–
NCI-H1793	0.375	0.336	0.409	0.311	0.353	0.407	0.562	0.498	0.377	0.303	–	–	–	–	–	0.218	0.181	0.212	0.175	0.138
NCI-H1944	0.232	0.231	0.202	0.252	0.276	0.984	1.06	1.11	1	1.11	–	–	–	–	–	0.779	0.926	0.818	0.732	0.828
NCI-H2170	0.455	0.526	0.461	0.504	0.404	0.675	0.62	0.687	–	0.554	–	–	–	–	–	0.722	0.799	0.707	0.749	0.424
SK-MES-1	0.236	0.262	0.132	0.171	0.163	1.3	1.18	1.21	1.2	0.97	–	–	–	–	–	0.782	0.813	0.809	0.788	0.673
SW 900	0.559	0.613	0.477	0.456	0.403	–	–	–	–	–	–	–	–	–	–	0.216	0.2	0.19	0.154	0.168
